Experimental data published in patent US20250208137A1, “COMPOUNDS FOR THE DETECTION AND INHIBITION OF COAGULATION PROTEASES” (Politechnika Wroclawska, priority 2022, published 2025).
Starred links: 1 amine or outer side, 2 acyl side, 3 side chain; linkers in the order of their positions; H or OH if unused. Non-standard residues stand in square brackets, D forms with d. Primed or numbered codes have the meaning given here. *: point of attachment. Tyr(2,6Cl2-Z) = 2,6-dichlorobenzyl-L-tyrosine, O=C([C@H](Cc1ccc(OCc2c(Cl)cccc2Cl)cc1)N[*:1])[*:2]; Glu(Bzl) = L-glutamic acid benzyl ester, O=C(CC[C@H](N[*:1])C(=O)[*:2])OCc1ccccc1; diphenyl phosphonate = C-terminal diphenyl phosphonate (Arg^P(OPh)2); BODIPY(FL) = CC1=CC(C)=[N+]2C1=Cc1ccc(CCC(=O)*)n1[B-]2(F)F; 1Nal = N[C@@H](Cc1cccc2ccccc12)C(=O)O; ACC = NC(=O)Cc1cc(=O)oc2cc(N*)ccc12; Igl = N[C@H](C(=O)O)C1Cc2ccccc2C1; hArg = N=C(N)NCCCC[C@H](N)C(=O)O; Agp = N=C(N)NC[C@H](N)C(=O)O; PEG4′ = PEG linker, 4 units; Nle = CCCC[C@H](N)C(=O)O; Dab = NCC[C@H](N)C(=O)O; Cbz = O=C(OCc1ccccc1)*; Cy3 = Cy3 fluorophore; Ahx = NCCCCCC(=O)O

Assays:
Type in all cases: biochemical
APC [1] = biological target: T1, APC (Homo sapiens, UniProt P04070); assay: Screen of APC tetrapeptide fluorogenic substrates; details: for activity and selectivity for APC in the substrate screen: out of substrates SMA1-SMA26
T1 sequence (P04070 212-461 limits assumed): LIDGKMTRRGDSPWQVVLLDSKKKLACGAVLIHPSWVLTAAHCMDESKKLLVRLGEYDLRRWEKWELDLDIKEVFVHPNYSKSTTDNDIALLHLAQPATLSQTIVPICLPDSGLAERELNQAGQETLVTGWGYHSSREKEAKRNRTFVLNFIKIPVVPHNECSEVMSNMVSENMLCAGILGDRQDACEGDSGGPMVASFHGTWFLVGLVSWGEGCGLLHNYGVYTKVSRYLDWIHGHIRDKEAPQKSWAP
T1 sequence (P04070 43-197 partner limits assumed): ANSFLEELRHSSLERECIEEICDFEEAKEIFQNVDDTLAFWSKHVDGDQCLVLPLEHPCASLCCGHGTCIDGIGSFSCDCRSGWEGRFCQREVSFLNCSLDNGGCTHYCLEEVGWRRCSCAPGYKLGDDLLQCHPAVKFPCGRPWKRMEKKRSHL
Protocol: (§1) To minimize potential cross reactivity, a detailed kinetic analysis of the four APC-selective substrates was performed against the other proteases.

APC [2] = biological target: T1, APC; assay: Inhibition kinetics (kobs/I) under pseudo first-order conditions, APC; details: 10 nM APC, substrate 154 μM SMA5, pH 7.4, 37° C.
Protocol: (§2) The Kobs/l parameters towards APC, fIIa, fXa, and fXIa were measured under pseudo first-order conditions (Table 1). The assay buffer contained 20 mM Tris-base, 150 mM NaCl, 5 mM CaCl2), pH 7.4. Each ABP or inhibitor was serially diluted until the seventh well to obtain the concentrations ranging from 308 nM to 100 µM, depending on the ABP/inhibitor used. The assay conditions were as follows: 20 μL of selected substrate (154 μM SMA5 for APC, 100 μM SMA4 for fIIa, 50 μM SMII18 for fXa, and 100 μM SMX1 for fXIa) was added into the wells containing 20 μL of seven different ABP/inhibitor concentrations. Next, 60 μL of APC, fIIa, fXa, or fXIa (at the concentration of 10 nM) preincubated for 15 min at 37° C. was added, and the fluorescence increase over time was measured (λex=355 nm, λem=460 nm) for 30 min. The Kobs/l values were calculated using GraphPad Prism and Microsoft Excel software as described previously.

fXIa = fXIa (Homo sapiens, UniProt P03951); assay: Inhibition kinetics (kobs/I) under pseudo first-order conditions, fXIa; details: 10 nM fXIa, substrate 100 μM SMX1, pH 7.4, 37° C.
Chain of fXIa (P03951 388-625 limits assumed): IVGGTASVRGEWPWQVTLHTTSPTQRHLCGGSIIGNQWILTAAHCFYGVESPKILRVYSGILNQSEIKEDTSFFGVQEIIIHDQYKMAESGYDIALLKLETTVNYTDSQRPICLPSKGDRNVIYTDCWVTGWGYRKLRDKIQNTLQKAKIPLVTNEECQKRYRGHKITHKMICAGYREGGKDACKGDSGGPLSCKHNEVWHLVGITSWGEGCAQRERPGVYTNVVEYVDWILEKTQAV
Chain of fXIa (P03951 19-387 partner limits assumed): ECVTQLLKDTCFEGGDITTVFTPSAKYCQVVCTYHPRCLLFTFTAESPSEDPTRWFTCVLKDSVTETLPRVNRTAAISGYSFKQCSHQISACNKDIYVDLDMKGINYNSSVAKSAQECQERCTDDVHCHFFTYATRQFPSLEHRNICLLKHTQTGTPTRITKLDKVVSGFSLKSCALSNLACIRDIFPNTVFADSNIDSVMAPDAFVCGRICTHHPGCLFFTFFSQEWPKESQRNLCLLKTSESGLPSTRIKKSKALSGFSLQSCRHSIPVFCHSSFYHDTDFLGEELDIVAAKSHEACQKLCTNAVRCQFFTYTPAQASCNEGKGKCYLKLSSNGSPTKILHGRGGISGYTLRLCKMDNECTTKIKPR
Protocol: as §2

fXa = fXa (Homo sapiens, UniProt P00742); assay: Inhibition kinetics (kobs/I) under pseudo first-order conditions, fXa; details: 10 nM fXa, substrate 50 μM SMII18, pH 7.4, 37° C.
Chain of fXa (P00742 235-488 limits assumed): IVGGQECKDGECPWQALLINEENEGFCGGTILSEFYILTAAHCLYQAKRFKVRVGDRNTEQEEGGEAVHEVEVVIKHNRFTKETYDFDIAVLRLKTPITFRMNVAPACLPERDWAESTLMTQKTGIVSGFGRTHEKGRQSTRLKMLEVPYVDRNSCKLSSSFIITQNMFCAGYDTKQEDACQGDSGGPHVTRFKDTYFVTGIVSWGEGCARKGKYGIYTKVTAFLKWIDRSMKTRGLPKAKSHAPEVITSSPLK
Chain of fXa (P00742 41-179 partner limits assumed): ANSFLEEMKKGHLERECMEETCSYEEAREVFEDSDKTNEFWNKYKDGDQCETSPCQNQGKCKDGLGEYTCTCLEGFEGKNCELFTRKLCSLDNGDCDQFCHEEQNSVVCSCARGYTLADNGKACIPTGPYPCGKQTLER
Protocol: as §2

fIIa = fIIa (Homo sapiens, UniProt P00734); assay: Inhibition kinetics (kobs/I) under pseudo first-order conditions, fIIa; details: 10 nM fIIa, substrate 100 μM SMA4, pH 7.4, 37° C.
Protocol: as §2

APC [3] = biological target: T1, APC; assay: Kinetic parameters (kcat/KM) of fluorogenic substrates, APC; details: APC versus other coagulation factors
Protocol: The Kcat/KM parameters towards APC, thrombin and fXa were measured using the procedure described in Modrzycka et al. Chemical Science, 2022, 13, 6813-6829.

[4] = tested on: other coagulation factors; assay: Substrate hydrolysis by other coagulation factors
Protocol: as §1

For Ac-K[Dab](Cbz)[Igl]R-{ACC} [SMA 5], the “activity and selectivity for APC in the substrate screen” value (shortened to “activity and selectivity for APC”) (APC [1]) was “showed the most activity and selectivity for APC” and the “cleavage efficiency compared to the best natural substrate (SMA54)” value (APC [1]; relative to SMA54) was “approximately 50 fold”.
With Ac-Lys-Dab(Z)-Lys-Arg^P(OPh)2 [I-SMA17] the “kobs/I APC” value (APC [2]) was 1,980 ± 20 M^−1s^−1.
With “Cy5-6-Ahx-Lys-Dab(Z)-Lys-Arg^P(OPh)2 [P-SMA172]” the “kobs/I APC” value (APC [2]) was 2,250 ± 170 M^−1s^−1.
“Bodipy-PEG(4)-Tyr(2,6Cl2-Z)-Nle-Glu(Bzl)-Arg^P(OPh)2 ({BODIPY(FL)-PEG4′}-[Tyr(2,6Cl2-Z)][Nle][Glu(Bzl)]R-{diphenyl phosphonate}) [P-SMXI52]” was tested, and the “kobs/I fXIa” value (fXIa) was 3,120 ± 100 M^−1s^−1.
With “Ac-Lys-Agp-Igl-Arg-ACC (Ac-K[Agp][Igl]R-{ACC}; SMILES CC(=O)N[C@@H](CCCCN)C(=O)N[C@@H](CNC(=N)N)C(=O)N[C@H](C(=O)N[C@@H](CCCNC(=N)N)C(=O)Nc1ccc2c(CC(N)=O)cc(=O)oc2c1)C1Cc2ccccc2C1) [SMA 6, fluorogenic substrate for APC]” the “activity and selectivity for APC” value (APC [1]) was “showed the most activity and selectivity for APC”.
For “Ac-DPro-hArg-1-Nal-Arg^P(OPh)2 (Ac-[dP][hArg][1Nal]R-{diphenyl phosphonate}) [I-SMX15]”, the “kobs/I fXa” value (fXa) was 1,200 ± 100 M^−1s^−1.
For “Cy7-6-Ahx-hCha-Cys(MeBzl)-Pip-Arg^P(OPh)2 [P-SMII222]”, the “kobs/I fIIa” value (fIIa) was 3,500 ± 300 M^−1s^−1.
Ac-K[Dab](Cbz)KR-{ACC} [SMA 17] was tested, and the Kcat/KM selectivity ratio (APC [3]) was “very high”, the “activity and selectivity for APC” value (APC [1]) was “showed the most activity and selectivity for APC” and the “hydrolysis when tested with other coagulation factors” value [4] was “almost nondetectable”.
“Ac-hCha-Cys(MeBzl)-Pip-Arg^P(OPh)2 [I-SMII22]” was tested, and the “kobs/I fIIa” value (fIIa) was 209,000 ± 13,800 M^−1s^−1.
In the case of “Cy3-6-Ahx-DPro-hArg-1-Nal-Arg^P(OPh)2 ({Cy3-Ahx}-[dP][hArg][1Nal]R-{diphenyl phosphonate}) [P-SMX152]”, the “kobs/I fXa” value (fXa) was 1,800 ± 100 M^−1s^−1.
For “Ac-Tyr(2,6Cl2-Z)-Nle-Glu(Bzl)-Arg^P(OPh)2 (Ac-[Tyr(2,6Cl2-Z)][Nle][Glu(Bzl)]R-{diphenyl phosphonate}) [I-SMXI5]”, the “kobs/I fXIa” value (fXIa) was 54,700 ± 2,800 M^−1s^−1.
